Measurements reported in patent publication US20240208972A1, “LRRK2 INHIBITORS AND USES THEREOF” (NEURON23, INC., priority 2022, published 2024).

What was measured:
[1] = target: T1, wt human LRRK2, catalytic site (Homo sapiens, UniProt Q5S007); assay: TR-FRET LanthaScreen Tb Kinase Activity Assay, LRRK2 kinase inhibition; type: biochemical; conditions: 2 nM wt human LRRK2, 400 nM peptide, 38 μM ATP
T1 construct: wt human LRRK2, catalytic site, catalytic site (ThermoFisher/USA); purchased ThermoFisher
T1 sequence (Q5S007 1879-2138 limits assumed): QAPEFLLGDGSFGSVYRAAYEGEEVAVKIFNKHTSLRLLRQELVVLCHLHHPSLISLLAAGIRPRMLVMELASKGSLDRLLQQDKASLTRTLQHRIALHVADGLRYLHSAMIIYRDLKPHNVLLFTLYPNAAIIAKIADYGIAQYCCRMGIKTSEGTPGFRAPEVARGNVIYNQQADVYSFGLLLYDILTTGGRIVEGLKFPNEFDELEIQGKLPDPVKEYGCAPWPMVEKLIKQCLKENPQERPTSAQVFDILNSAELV
Procedure, shortened: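 TR-FRET LanthaScreen format: 2 nM wt human LRRK2 catalytic domain with 400 nM fluorescein-ERM (LRRKtide) and 38 μM ATP in Kinase Buffer A, after 15 min compound preincubation. Reaction 120 min at RT, then EDTA plus Tb-anti-pLRRKtide antibody for 60 min; emission ratios analysed per kit protocol.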

[2] = Brain penetration (Kp,uu) in CD-1 mice, with plasma and brain tissue binding by equilibrium dialysis; type: in vivo; conditions: mouse, brain and plasma (unbound), male CD-1 mice, single IV bolus 1 mg/kg
Protocol: The compounds disclosed herein were tested on CD-1 mice for brain penetration (Kp, uu) according to the following procedures.
Nine male CD-1 mice were administered TEST COMPOUND by single intravenous bolus administration at 1 mg/kg. The vehicle used for IV study was 5% DMSO, 5% solutol, 20% PEG300 and 70% water. The detailed dosing and sampling regimens are described in the following tables.
1.0 mg of test compound was accurately weighed into a glass vial, and slowly added with 104 μL of DMSO and vortexed for 1 min. Then 104 μL of solutol was added and vortexed for 1 min. Then 415 μL of PEG300 was added and vortexed for 1 min. Then 1000 μL of water was added and vortexed for 1 min. Finally, 451 μL of water was added and vortexed for 1 min to get a clear solution.
The body weights were in the range from 28.81 to 31.25 g for males on the first dosing day. All animals received a single intravenous bolus administration of TEST COMPOUND from the tail vein.
Each blood collection (about 0.06 mL per time point) was performed from saphenous vein of each animal into pre-chilled commercial K2-EDTA tubes as anti-coagulant and placed on wet ice until centrifugation.
Plasma samples were then prepared by centrifuging the blood samples at approximately 4° C., 3200×g for 10 minutes. All plasma samples were then quickly frozen over dry ice and kept at −60° C. or lower until LC-MS/MS analysis.
Brain tissue was homogenized using homogenizing buffer (15 mM PBS (pH7.4): MeOH=2:1) at the ratio of 1:9 (1 g tissue with 9 mL buffer, the dilution ratio is 10). The tissue homogenate was kept at −60° C. or lower until LC-MS/MS analysis.
The concentrations of TEST COMPOUND in plasma and brain were determined by using an LC-MS/MS method.
The plasma and brain concentration of TEST COMPOUND in study animals was subjected to a non-compartmental pharmacokinetic analysis by using the Phoenix WinNonlin software program (version 6.3 or above, Pharsight). The linear/log trapezoidal rule was applied in obtaining the PK parameters.
Individual plasma and brain concentration values that were below the lower limit of quantitation (LLOQ) were excluded from the PK parameter calculation. The nominal dose levels and nominal sampling times were used in the calculation of all pharmacokinetic parameters.
Mouse Kp, uu=(% free in mouse brain*concentration in mouse brain)/(% free in mouse plasma*concentration in mouse plasma)
The dialysis apparatus was assembled according to the manufacturer's instruction. Each Cell was filled with 120 μL of spiked plasma sample and dialyzed against equal volume of dialysis buffer (PBS). The assay was performed in duplicate. The dialysis plates were sealed and incubated in an incubator at 37° C. with 5% CO2 and rotated at 100 rpm for 6 hours. At the end of incubation, the seals were removed and 50 μL of samples from both buffer and plasma chambers were transferred to a 96-well plate.
All calculations were carried out using Microsoft Excel. The concentrations of test compound and control compound in the buffer and plasma chambers were determined from peak area ratios (PAR) of analyte to internal standard. Protein binding (% unbound and % bound) and recovery (% recovery) of test and control compounds was calculated as follows:
• 1. Thawing of the frozen brain (stored at −80° C.) • Frozen brain tissue was thawed at room temperature in a bath. Only brain tissue was used that was thawed no more than once. • 2. Preparation of brain tissue homogenate • Brain tissue homogenate was prepared by diluting one quantity (g) of the whole brain tissue with three volumes (mL) of buffer (PBS, pH 7.4) and homogenizing the mixture using a tissue homogenizer. Brain tissue homogenate was frozen at −80° C. for later use/comparison. • 3. Preparation of working solutions • The working solutions of test compound and the control compound propranolol were prepared in dimethyl sulfoxide (DMSO) at the concentration of 200 μM. […]

SMILES | IC50 [1] | Kp uu [2]
Cc1n[nH]c2c1N=C(c1c(F)cccc1F)Nc1cc(F)c(N3CCOCC3)cc1-2 [Example 28, 4-[5-(2,6-difluorophenyl)-8-fluoro-3-methyl-1,6-dihydropyrazolo[4,3-d][1,3]benzodiazepine-9-yl]morpholine] | 2 to 100 nM | > 0.4
Cc1n[nH]c2c1N=C(c1c(F)cccc1F)Nc1c-2cc(N2CCN(CC(C)(C)F)CC2)nc1C [Example 5, 5-(2,6-difluorophenyl)-9-(4-(2-fluoro-2-methylpropyl)piperazin-1-yl)-3,7-dimethyl-1,6-dihydropyrazolo[4,3-d]pyrido[4,3-f][1,3]diazepine] | < 2 nM | > 0.4
[2H]C([2H])([2H])c1n[nH]c2c1N=C(c1c(F)cccc1F)Nc1cnc(N3CCOCC3)cc1-2 [Example 32, 4-[8-(2,6-difluorophenyl)-5-(trideuteriomethyl)-3,4,7,9,12-pentazatricyclo[8.4.0.02,6]tetradeca-1(10),2(6),4,7,11,13-hexaen-13-yl]morpholine] | < 2 nM | 0.2 to 0.4
Cc1n[nH]c2c1N=C(c1c(F)cccc1F)Nc1ccc(N3CCOCC3)cc1-2 [Example 29, 4-(5-(2,6-difluorophenyl)-3-methyl-1,6-dihydrobenzo[d]pyrazolo[3,4-f][1,3]diazepin-9-yl)morpholine] | < 2 nM | > 0.4
[2H]C1([2H])OC([2H])([2H])C([2H])([2H])N(c2ccc3c(c2)-c2[nH]nc(C)c2N=C(c2c(F)cccc2F)N3)C1([2H])[2H] [Example 22, 2,2,3,3,5,5,6,6-octadeuterio-4-[5-(2,6-difluorophenyl)-3-methyl-1,6-dihydropyrazolo[4,3-d][1,3]benzodiazepin-9-yl]morpholine] | < 2 nM | < 0.2
Cc1n[nH]c2c1N=C(c1c(F)cccc1F)Nc1c-2cc(N2CC3(CCOCC3)C2)nc1C [Example 47, 2-[8-(2,6-difluorophenyl)-5,11-dimethyl-3,4,7,9,12-pentazatricyclo[8.4.0.02,6]tetradeca-1(10),2(6),4,7,11,13-hexaen-13-yl]-7-oxa-2-azaspiro[3.5]nonane] | < 2 nM | 0.2 to 0.4
Cc1n[nH]c2c1N=C(c1c(F)cccc1F)Nc1cnc(C#CC3(C)CCOCC3)cc1-2 [Example 17, 8-(2,6-difluorophenyl)-5-methyl-13-[2-(4-methyltetrahydropyran-4-yl)ethynyl]-3,4,7,9,12-pentazatricyclo[8.4.0.02,6]tetradeca-1(10),2(6),4,7,11,13-hexaene] | < 2 nM | 0.2 to 0.4
Cc1n[nH]c2c1N=C(c1c(F)cc(F)cc1F)Nc1ccc(N3CCOCC3)cc1-2 [Example 27, 4-[3-methyl-5-(2,4,6-trifluorophenyl)-1,6-dihydropyrazolo[4,3-d][1,3]benzodiazepin-9-yl]morpholine] | 2 to 100 nM | 0.2 to 0.4
Cc1n[nH]c2c1N=C(c1c(F)cccc1F)Nc1ccc(N3CCO[C@@H](C)C3)cc1-2 [Example 26, (S)-4-(5-(2,6-difluorophenyl)-3-methyl-1,6-dihydrobenzo[d]pyrazolo[3,4-f][1,3]diazepin-9-yl)-2-methylmorpholine] | 2 to 100 nM | 0.2 to 0.4
Cc1n[nH]c2c1N=C(c1c(F)cccc1F)Nc1ccc(-c3cnn(C(F)F)c3)cc1-2 [Example 13, 9-[1-(difluoromethyl)pyrazol-4-yl]-5-(2,6-difluorophenyl)-3-methyl-1,6-dihydropyrazolo[4,3-d][1,3]benzodiazepine] | < 2 nM | > 0.4
Cc1n[nH]c2c1N=C(c1c(F)cccc1F)Nc1c-2cc(N2CCN(CCF)CC2)nc1C [Example 9, 8-(2,6-difluorophenyl)-13-[4-(2-fluoroethyl)piperazin-1-yl]-5,11-dimethyl-3,4,7,9,12-pentazatricyclo[8.4.0.02,6]tetradeca-1(10),2(6),4,7,11,13-hexaene] | < 2 nM | > 0.4
Cc1n[nH]c2c1N=C(c1c(F)cccc1F)Nc1cnc(-c3cnn(C(F)F)c3)cc1-2 [Example 1, 9-(1-(difluoromethyl)-1H-pyrazol-4-yl)-5-(2,6-difluorophenyl)-3-methyl-1,6-dihydropyrazolo[4,3-d]pyrido[4,3-f][1,3]diazepine] | < 2 nM | 0.2 to 0.4
Cc1n[nH]c2c1N=C(c1c(F)cccc1F)N1CCc3nc(N4CCOCC4)cc-2c31 [Example 42, 4-[8-(2,6-difluorophenyl)-5-methyl-3,4,7,9,13-pentazatetracyclo[7.6.1.02,6.012,16]hexadeca-1(16),2(6),4,7,12,14-hexaen-14-yl]morpholine] | < 2 nM | 0.2 to 0.4
Cc1n[nH]c2c1N=C(c1c(F)cccc1F)Nc1cnc(N3CCO[C@@H](C(F)(F)F)C3)cc1-2 [Example 55, (2R)-4-[8-(2,6-difluorophenyl)-5-methyl-3,4,7,9,12-pentazatricyclo[8.4.0.02,6]tetradeca-1(10),2(6),4,7,11,13-hexaen-13-yl]-2-(trifluoromethyl)morpholine] | < 2 nM | < 0.2
[2H]C([2H])([2H])c1n[nH]c2c1N=C(c1c(F)cccc1F)Nc1ccc(N3CCOCC3)cc1-2 [Example 33, 4-[5-(2,6-difluorophenyl)-3-(trideuteriomethyl)-1,6-dihydropyrazolo[4,3-d][1,3]benzodiazepin-9-yl]morpholine] | < 2 nM | 0.2 to 0.4
[2H]C([2H])([2H])c1n[nH]c2c1N=C(c1c(F)cccc1F)Nc1ccc(N3CCO[C@@H](C)C3)cc1-2 [Example 34, (2S)-4-[5-(2,6-difluorophenyl)-3-(trideuteriomethyl)-1,6-dihydropyrazolo[4,3-d][1,3]benzodiazepin-9-yl]-2-methyl-morpholine] | < 2 nM | 0.2 to 0.4
Cc1n[nH]c2c1N=C(c1c(F)cccc1F)Nc1ccc(N3CCO[C@H](C)C3)cc1-2 [Example 7, (R)-4-(5-(2,6-difluorophenyl)-3-methyl-1,6-dihydrobenzo[d]pyrazolo[3,4-f][1,3]diazepin-9-yl)-2-methylmorpholine] | < 2 nM | 0.2 to 0.4
Cc1n[nH]c2c1N=C(c1c(F)cccc1F)Nc1cnc(-c3ccn(C(F)F)n3)cc1-2 [Example 12, 13-[1-(difluoromethyl)pyrazol-3-yl]-8-(2,6-difluorophenyl)-5-methyl-3,4,7,9,12-pentazatricyclo[8.4.0.02,6]tetradeca-1(10),2(6),4,7,11,13-hexaene] | < 2 nM | < 0.2
Cc1n[nH]c2c1N=C(c1c(F)cccc1F)Nc1c-2cc(N2CCO[C@@H](C)C2)nc1C [Example 40, (S)-4-(5-(2,6-difluorophenyl)-3,7-dimethyl-1,6-dihydropyrazolo[4,3-d]pyrido[4,3-f][1,3]diazepin-9-yl)-2-methylmorpholine] | < 2 nM | < 0.2
Cc1n[nH]c2c1N=C(c1c(F)cccc1F)Nc1c-2cc(N2CCOCC2)nc1C [Example 8, 4-[8-(2,6-difluorophenyl)-5,11-dimethyl-3,4,7,9,12-pentazatricyclo[8.4.0.02,6]tetradeca-1(10),2(6),4,7,11,13-hexaen-13-yl]morpholine] | < 2 nM | 0.2 to 0.4
Cc1n[nH]c2c1N=C(c1c(F)cccc1F)Nc1c-2cc(N2CCN(CCF)C[C@H]2C)nc1C (single isomer, unassigned) [Example 18] | < 2 nM | > 0.4
